# In ChEMBL document CHEMBL5143602, “Design, synthesis and antibacterial evaluation of pleuromutilin derivatives” (Bioorg Med Chem, 2022):
# Calls of active or inactive are those of the source. The rule behind the calls is not given here.
# Legend:
# HGC-27 = test: Cytotoxicity against human HGC-27 cells assessed as cell growth inhibition measured after 72 hrs by MTT assay; assay type: functional, cell-based; details: HGC-27, 72 h
# [1] = tested on: Mycoplasmoides pneumoniae; test: Antibacterial activity against Mycoplasma pneumoniae ATCC15531 assessed as inhibition of bacterial growth incubated for 18 hrs by two-fold serial dilution method; assay type: functional
# [2] = tested on: Mycoplasmoides pneumoniae; test: Antibacterial activity against drug resistant Mycoplasma pneumoniae assessed as inhibition of bacterial growth incubated for 18 hrs by two-fold serial dilution method; assay type: functional
# U-87 MG = test: Cytotoxicity against human U87 cells assessed as cell growth inhibition measured after 72 hrs by MTT assay; assay type: functional, cell-based, U-87MG ATCC
# HepG2 = test: Cytotoxicity against human HepG2 cells assessed as cell growth inhibition measured after 72 hrs by MTT assay; assay type: functional, cell-based; details: HepG2, 72 h
# Enterococcus faecium = test: Antibacterial activity against Enterococcus faecium ATCC19434 assessed as inhibition of bacterial growth incubated for 18 hrs by two-fold serial dilution method; assay type: functional
# Staphylococcus aureus [3] = test: Antibacterial activity against methicillin-sensitive Staphylococcus aureus ATCC 29213 assessed as inhibition of bacterial growth incubated for 18 hrs by two-fold serial dilution method; assay type: functional
# Staphylococcus aureus [4] = test: Antibacterial activity against methicillin-resistant Staphylococcus aureus ATCC 43300 assessed as inhibition of bacterial growth incubated for 18 hrs by two-fold serial dilution method; assay type: functional
# HT-29 = test: Cytotoxicity against human HT-29 cells assessed as cell growth inhibition measured after 72 hrs by MTT assay; assay type: functional, cell-based; details: HT-29, 72 h
# MCF7 = test: Cytotoxicity against human MCF7 cells assessed as cell growth inhibition measured after 72 hrs by MTT assay; assay type: functional, cell-based; details: MCF7, 72 h
# [5] = tested on: Staphylococcus epidermidis; test: Antibacterial activity against Staphylococcus epidermidis ATCC12228 assessed as inhibition of bacterial growth incubated for 18 hrs by two-fold serial dilution method; assay type: functional
# Staphylococcus aureus [6] = test: Bactericidal activity against methicillin-resistant Staphylococcus aureus ATCC 43300 assessed as decrease in bacterial propagation at 2 to 8 times MIC and measured after 24 hrs by time kill curve assay relative to control; assay type: functional, organism-based
# [7] = tested on: Mycoplasmoides pneumoniae; test: Antibacterial activity against Mycoplasma pneumoniae ATCC29342 assessed as inhibition of bacterial growth incubated for 18 hrs by two-fold serial dilution method; assay type: functional
# Staphylococcus aureus [8] = test: Bactericidal activity against methicillin-resistant Staphylococcus aureus ATCC 43300 at 4 times MIC and measured after 24 hrs by time kill curve assay relative to control; assay type: functional, organism-based
compound,measurement,setting,value
C=C[C@]1(C)C[C@@H](OC(=O)CNC(=O)Nc2ccc(OC)cc2)[C@]2(C)[C@H](C)CC[C@]3(CCC(=O)[C@H]32)[C@@H](C)[C@@H]1O,IC50,HGC-27,> 10 µM
same,MIC,[1],0.125 mg/L
same,MIC,[2],0.5 mg/L
same,IC50,U-87 MG,> 10 µM
same,IC50,HepG2,> 10 µM
same,MIC,Enterococcus faecium,8 mg/L
same,MIC,Staphylococcus aureus [3],0.0625 mg/L
same,MIC,Staphylococcus aureus [4],0.5 mg/L
same,IC50,HT-29,> 10 µM
same,IC50,MCF7,> 10 µM
same,MIC,[5],> 64 mg/L
same,Activity,Staphylococcus aureus [6],Active
same,MIC,[7],0.0625 mg/L
C=C[C@]1(C)C[C@@H](OC(=O)CNC(=O)Nc2cccc(Br)c2)[C@]2(C)[C@H](C)CC[C@]3(CCC(=O)[C@H]32)[C@@H](C)[C@@H]1O,IC50,HGC-27,3.95 µM
same,MIC,[1],0.25 mg/L
same,MIC,[2],1 mg/L
same,IC50,U-87 MG,> 10 µM
same,IC50,HepG2,> 10 µM
same,MIC,Enterococcus faecium,4 mg/L
same,MIC,Staphylococcus aureus [3],0.0625 mg/L
same,MIC,Staphylococcus aureus [4],0.25 mg/L
same,IC50,HT-29,> 10 µM
same,IC50,MCF7,> 10 µM
same,MIC,[5],> 64 mg/L
same,MIC,[7],0.25 mg/L
C=C[C@]1(C)C[C@@H](OC(=O)CSCCN(CC)CC)[C@]2(C)[C@H](C)CC[C@]3(CCC(=O)[C@H]32)[C@@H](C)[C@@H]1O [TIAMULIN],IC50,HGC-27,> 10 µM
same,Activity,Staphylococcus aureus [8],Active
same,IC50,U-87 MG,> 10 µM
same,IC50,HepG2,> 10 µM
same,MIC,Enterococcus faecium,16 mg/L
same,MIC,Staphylococcus aureus [3],0.5 mg/L
same,MIC,Staphylococcus aureus [4],0.25 mg/L
same,IC50,HT-29,> 10 µM
same,IC50,MCF7,> 10 µM
same,MIC,[5],32 mg/L
C=C[C@]1(C)C[C@@H](OC(=O)CNC(=O)Nc2ccc(F)cc2)[C@]2(C)[C@H](C)CC[C@]3(CCC(=O)[C@H]32)[C@@H](C)[C@@H]1O,IC50,HGC-27,> 10 µM
same,MIC,[1],0.25 mg/L
same,MIC,[2],1 mg/L
same,IC50,U-87 MG,> 10 µM
same,IC50,HepG2,> 10 µM
same,MIC,Enterococcus faecium,16 mg/L
same,MIC,Staphylococcus aureus [3],0.5 mg/L
same,MIC,Staphylococcus aureus [4],0.125 mg/L
same,IC50,HT-29,> 10 µM
same,IC50,MCF7,> 10 µM
same,MIC,[5],> 64 mg/L
same,MIC,[7],0.125 mg/L
C=C[C@]1(C)C[C@@H](OC(=O)CNC(=O)Nc2ccc(F)cc2F)[C@]2(C)[C@H](C)CC[C@]3(CCC(=O)[C@H]32)[C@@H](C)[C@@H]1O,IC50,HGC-27,> 10 µM
same,MIC,[1],0.25 mg/L
same,MIC,[2],1 mg/L
same,IC50,U-87 MG,> 10 µM
same,IC50,HepG2,> 10 µM
same,MIC,Enterococcus faecium,16 mg/L
same,MIC,Staphylococcus aureus [3],0.25 mg/L
same,MIC,Staphylococcus aureus [4],0.25 mg/L
same,IC50,HT-29,> 10 µM
same,IC50,MCF7,> 10 µM
same,MIC,[5],> 64 mg/L
same,MIC,[7],0.125 mg/L
C=C[C@]1(C)C[C@@H](OC(=O)CNC(=O)Nc2ccccc2Br)[C@]2(C)[C@H](C)CC[C@]3(CCC(=O)[C@H]32)[C@@H](C)[C@@H]1O,IC50,HGC-27,> 10 µM
same,MIC,[1],0.5 mg/L
same,MIC,[2],2 mg/L
same,IC50,U-87 MG,> 10 µM
same,IC50,HepG2,> 10 µM
same,MIC,Enterococcus faecium,32 mg/L
same,MIC,Staphylococcus aureus [3],0.25 mg/L
same,MIC,Staphylococcus aureus [4],0.25 mg/L
same,IC50,HT-29,> 10 µM
same,IC50,MCF7,> 10 µM
same,MIC,[5],> 64 mg/L
same,MIC,[7],0.5 mg/L
C=C[C@]1(C)C[C@@H](OC(=O)CO)[C@]2(C)[C@H](C)CC[C@]3(CCC(=O)[C@H]32)[C@@H](C)[C@@H]1O [PLEUROMULIN],MIC,[1],0.125 mg/L
same,MIC,[2],0.25 mg/L
same,MIC,Enterococcus faecium,32 mg/L
same,MIC,Staphylococcus aureus [3],1 mg/L
same,MIC,Staphylococcus aureus [4],2 mg/L
same,MIC,[5],16 mg/L
same,MIC,[7],0.0625 mg/L
C=C[C@]1(C)C[C@@H](OC(=O)CNC(=O)NC(=O)c2ccccc2F)[C@]2(C)[C@H](C)CC[C@]3(CCC(=O)[C@H]32)[C@@H](C)[C@@H]1O,MIC,[1],1 mg/L
same,MIC,[2],2 mg/L
same,MIC,Enterococcus faecium,8 mg/L
same,MIC,Staphylococcus aureus [3],0.5 mg/L
same,MIC,Staphylococcus aureus [4],0.5 mg/L
same,MIC,[5],> 64 mg/L
same,MIC,[7],> 8 mg/L
